# Reference: patent US12692269B2, “Therapeutic compounds” (Genentech, Inc., priority 2019, dated 2026)
# pEC50: −log10 of the molar value.
# Assays:
# Type in all cases: binding
# TEAD1 YAP50-100 = TEAD1 YAP50-100 (Homo sapiens, UniProt P28347); assay: TEAD1-YAP HTRF (TR-FRET) protein-protein interaction assay; conditions: TEAD1, YAP peptide 50-100, HTRF; for pEC50: read-out: TEAD1 YAP50-100 HTRF combined: EC50
# Experimental: (§1) Purified His-tagged TEAD protein (YAP Binding Domain, amino acids 217-447) is pre-incubated with Europium labelled anti-His antibody tracer (Perkin Elmer Cat #AD0110). Small molecule Inhibitors are then incubated with the TEAD-Eu protein complex for 30 minutes to allow for binding to TEAD protein. Biotinylated YAP peptide for TEAD-YAP assays (AA's 50-100) or biotinylated TAZ peptide for TEAD-TAZ assays (AA's 13-57) that has been pre-incubated with streptavidin-xl665 acceptor (CIS-Bio Cat #610SAXAC) or is added to the compound-TEAD mix. The TEAD-YAP-inhibitor mixture is then incubated for 60 minutes at room temperature. All reactions are carried out in a polystyrene plate. After 60 minutes, the plate is read on a plate reader using TR-FRET mode with wavelengths of 665 nm/615 nm. If YAP or TAZ binds to TEAD as expected, a TR-FRET signal results from the proximity of YAP or TAZ and TEAD after binding. If an inhibitor such as peptide 17 (Selleckchem Cat #58164) interferes with YAP-TEAD or TAZ-TEAD binding, the disruption of the YAP or TAZ:TEAD interaction results in a decrease in TR-FRET signal. The potency of compounds as YAP:TEAD or TAZ:TEAD protein-protein interaction (PPi) inhibitors is determined by an IC50 or EC50 value generated using a non-linear four parameter curve fit.
# TEAD2 YAP50-100 = TEAD2 YAP50-100 (Homo sapiens, UniProt Q15562); assay: TEAD2-YAP HTRF (TR-FRET) protein-protein interaction assay; conditions: TEAD2, YAP peptide 50-100, HTRF; for pEC50: read-out: TEAD2 YAP50-100 HTRF combined: EC50
# Experimental: as §1
# TEAD3 YAP50-100 = TEAD3 YAP50-100 (Homo sapiens, UniProt Q99594); assay: TEAD3-YAP HTRF (TR-FRET) protein-protein interaction assay; conditions: TEAD3, YAP peptide 50-100, HTRF; for pEC50: read-out: TEAD3 YAP50-100 HTRF combined: EC50
# Experimental: as §1
# TEAD4 YAP50-100 = TEAD4 YAP50-100 (Homo sapiens, UniProt Q15561); assay: TEAD4-YAP HTRF (TR-FRET) protein-protein interaction assay; conditions: TEAD4, YAP peptide 50-100, HTRF; for pEC50: read-out: TEAD4 YAP50-100 HTRF combined: EC50
# Experimental: as §1
# [1] = target: TEAD1 TAZ (amino acids 13-57) (Homo sapiens, UniProt P28347); assay: TEAD1-TAZ HTRF (TR-FRET) protein-protein interaction assay; conditions: for TEAD1 TAZ HTRF combined: Max % Inhibition: TEAD1, TAZ peptide; for pEC50: TEAD1-TAZ HTRF, TR-FRET 665 nm/615 nm, read-out: TEAD1 TAZ HTRF combined: EC50
# Experimental: as §1
# [2] = target: TEAD2 TAZ (amino acids 13-57) (Homo sapiens, UniProt Q15562); assay: TEAD2-TAZ HTRF (TR-FRET) protein-protein interaction assay; conditions: for TEAD2 TAZ HTRF combined: Max % Inhibition: TEAD2, TAZ peptide; for pEC50: TEAD2-TAZ HTRF, TR-FRET 665 nm/615 nm, read-out: TEAD2 TAZ HTRF combined: EC50
# Experimental: as §1
# [3] = target: TEAD3 TAZ (amino acids 13-57) (Homo sapiens, UniProt Q99594); assay: TEAD3-TAZ HTRF (TR-FRET) protein-protein interaction assay; conditions: for TEAD3 TAZ HTRF combined: Max % Inhibition: TEAD3, TAZ peptide; for pEC50: TEAD3-TAZ HTRF, TR-FRET 665 nm/615 nm, read-out: TEAD3 TAZ HTRF combined: EC50
# Experimental: as §1
# [4] = target: TEAD4 TAZ (amino acids 13-57) (Homo sapiens, UniProt Q15561); assay: TEAD4-TAZ HTRF (TR-FRET) protein-protein interaction assay; conditions: for TEAD4 TAZ HTRF combined: Max % Inhibition: TEAD4, TAZ peptide; for pEC50: TEAD4-TAZ HTRF, TR-FRET 665 nm/615 nm, read-out: TEAD4 TAZ HTRF combined: EC50
# Experimental: as §1
# TEAD3 YAP50-100, sequence (Q99594 173-435 limits assumed): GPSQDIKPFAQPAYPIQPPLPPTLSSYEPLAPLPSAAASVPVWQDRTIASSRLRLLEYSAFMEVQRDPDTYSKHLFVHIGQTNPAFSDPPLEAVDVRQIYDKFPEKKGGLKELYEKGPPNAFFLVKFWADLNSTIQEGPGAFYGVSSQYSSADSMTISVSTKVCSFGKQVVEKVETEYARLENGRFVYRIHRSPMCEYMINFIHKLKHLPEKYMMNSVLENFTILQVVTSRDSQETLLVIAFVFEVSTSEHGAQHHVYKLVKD
# TEAD3 TAZ (amino acids 13-57), sequence (Q99594 173-435 limits assumed): as above
# TEAD1 TAZ (amino acids 13-57), sequence (P28347 167-426 limits assumed): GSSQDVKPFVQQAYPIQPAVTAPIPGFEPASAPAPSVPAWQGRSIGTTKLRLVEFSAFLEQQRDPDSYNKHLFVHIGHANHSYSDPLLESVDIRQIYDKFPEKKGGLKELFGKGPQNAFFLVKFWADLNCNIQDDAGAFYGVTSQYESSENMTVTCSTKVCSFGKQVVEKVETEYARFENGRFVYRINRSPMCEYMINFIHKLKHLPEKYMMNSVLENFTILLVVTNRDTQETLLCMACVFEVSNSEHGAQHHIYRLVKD
# TEAD1 YAP50-100, sequence (P28347 167-426 limits assumed): as above
# TEAD4 TAZ (amino acids 13-57), sequence (Q15561 217-434 limits assumed): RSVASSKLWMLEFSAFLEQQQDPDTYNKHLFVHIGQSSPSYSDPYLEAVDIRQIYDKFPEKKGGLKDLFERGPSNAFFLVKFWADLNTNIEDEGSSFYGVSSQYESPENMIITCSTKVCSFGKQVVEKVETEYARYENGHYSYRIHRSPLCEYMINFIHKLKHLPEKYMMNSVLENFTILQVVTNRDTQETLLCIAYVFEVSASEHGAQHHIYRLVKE
# TEAD4 YAP50-100, sequence (Q15561 217-434 limits assumed): as above
# TEAD2 YAP50-100, sequence (Q15562 217-447): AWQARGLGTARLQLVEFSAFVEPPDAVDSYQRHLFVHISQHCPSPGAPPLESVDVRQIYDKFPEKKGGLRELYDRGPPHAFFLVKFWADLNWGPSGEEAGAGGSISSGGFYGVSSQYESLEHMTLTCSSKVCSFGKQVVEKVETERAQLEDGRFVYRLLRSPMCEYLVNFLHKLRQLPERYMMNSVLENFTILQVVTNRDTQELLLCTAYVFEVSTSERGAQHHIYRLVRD
# TEAD2 TAZ (amino acids 13-57), sequence (Q15562 217-447): as above
Structure (SMILES),TEAD1 YAP50-100 HTRF combined: Max % Inhibition (TEAD1 YAP50-100) [%],pEC50 (TEAD1 YAP50-100),TEAD2 YAP50-100 HTRF combined: Max % Inhibition (TEAD2 YAP50-100) [%],pEC50 (TEAD2 YAP50-100),TEAD3 YAP50-100 HTRF combined: Max % Inhibition (TEAD3 YAP50-100) [%],pEC50 (TEAD3 YAP50-100),TEAD4 YAP50-100 HTRF combined: Max % Inhibition (TEAD4 YAP50-100) [%],pEC50 (TEAD4 YAP50-100),TEAD1 TAZ HTRF combined: Max % Inhibition [1] [%],pEC50 [1],TEAD2 TAZ HTRF combined: Max % Inhibition [2] [%],pEC50 [2],TEAD3 TAZ HTRF combined: Max % Inhibition [3] [%],pEC50 [3],TEAD4 TAZ HTRF combined: Max % Inhibition [4] [%],pEC50 [4]
"CC(C)c1ccnc(-c2nn3c(=O)cc(-c4ccc(C5CCCCC5)cc4)[nH]c3c2C(=O)N2CC(CF)C2)n1 [Compound 10, 5-(4-Cyclohexylphenyl)-3-(3-(fluoromethyl)azetidine-1-carbonyl)-2-(4-isopropylpyrimidin-2-yl)pyrazolo[1,5-a]pyrimidin-7(4H)-one]",77.0,7.22,67.0,8.00,70.5,6.92,60.5,6.17,72.0,7.22,65.0,8.00,61.5,6.85,62.0,6.27
"O=C(c1c(-c2ncccn2)nn2c(=O)cc(-c3ccc(C4CCCCC4)cc3)[nH]c12)N1CC(CF)C1 [Compound 15, 5-(4-Cyclohexylphenyl)-3-(3-(fluoromethyl)azetidine-1-carbonyl)-2-(pyrimidin-2-yl)pyrazolo[1,5-a]pyrimidin-7(4H)-one]",74.0,7.52,64.8,8.00,64.0,7.15,50.5,7.52,64.0,7.40,62.0,8.00,55.8,7.15,49.0,7.70
"O=C(c1c(-c2ncccn2)nn2c(=O)cc(-c3ccc(C4CCCCC4)c(F)c3)[nH]c12)N1CC(CF)C1 [Compound 22, 5-(4-Cyclohexyl-3-fluorophenyl)-3-(3-(fluoromethyl)azetidine-1-carbonyl)-2-(pyrimidin-2-yl)pyrazolo[1,5-a]pyrimidin-7(4H)-one]",69.0,6.85,58.0,7.70,60.0,6.68,45.5,7.15,64.0,6.96,57.5,7.70,57.0,6.68,48.0,7.22
"C[C@@H]1[C@H](CF)CN1C(=O)c1c(C(=O)N(C)C)nn2c(=O)cc(-c3ccc(C4CCCCC4)cc3)[nH]c12 [Compound 6, 5-(4-Cyclohexylphenyl)-3-((2R,3R)-3-(fluoromethyl)-2-methylazetidine-1-carbonyl)-N,N-dimethyl-7-oxo-4,7-dihydropyrazolo[1,5-a]pyrimidine-2-carboxamide]",73.0,6.39,69.5,6.15,71.5,5.31,17.0,4.71,70.5,6.28,67.5,6.15,64.5,5.22,14.0,4.45
"Cc1cnc(-c2nn3c(=O)cc(-c4ccc(C5CCCCC5)cc4)[nH]c3c2C(=O)N2CC(CF)C2)cn1 [Compound 26, 5-(4-Cyclohexylphenyl)-3-(3-(fluoromethyl)azetidine-1-carbonyl)-2-(5-methylpyrazin-2-yl) pyrazolo [1,5-a]pyrimidin-7(4H)-one]",71.0,7.22,70.0,7.52,66.0,6.85,44.5,6.47,70.0,7.00,72.5,7.52,60.0,6.82,45.5,6.54
"CCc1ccnc(-c2nn3c(=O)cc(-c4ccc(C5CCCCC5)cc4)[nH]c3c2C(=O)N2CC(CF)C2)n1 [Compound 12, 5-(4-Cyclohexylphenyl)-2-(4-ethylpyrimidin-2-yl)-3-(3-(fluoromethyl)azetidine-1-carbonyl)pyrazolo[1,5-a]pyrimidin-7(4H)-one]",72.0,6.85,69.0,7.70,66.0,6.72,55.0,6.70,67.5,6.96,64.5,7.70,56.0,6.62,58.0,6.74
